Results on 13 compounds are retold here after ChEMBL document CHEMBL1201862, “PubChem BioAssay data set” (2004).

Holding throughout (assay): DTP human tumour cell line panel, 48 h
Test [1] concerns A549.
Test [2] deals with CCRF-CEM.
Test [3] relates to COLO 205.
Test [4] concerns HCT-116.
Test [5] deals with HCT-15.
Test [6] concerns HOP-62.
Test [7] deals with HOP-92.
Test [8] relates to IGROV-1.
Test [9] relates to LOX IMVI.
Test [10] relates to Malme-3M.
Test [11] deals with OVCAR-3.
The test system of test [12] is OVCAR-4.
Test [13] has as its system SK-MEL-28.
Test [14] relates to SK-MEL-5.
Test [15] has as its system SNB-75.
Test [16] concerns TK-10.
Test [17] relates to UO-31.
The subject of test [18] is NCI-H460.
Test [19] has as its system BT-549.

One may read the GI50 as the concentration that inhibits growth by half.

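Results reflect a 48-hour exposure of cells in 96-well plates to compound at five concentrations. GI50: concentration for 50% inhibition of growth.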 Active and inactive are the calls of the source. Rule as the data show it: active = GI50 up to about 1.1 µM and inactive = higher. Where only a bound is given, the exact number is not on record here.

Regarding `CCCNC(=O)N(C)C(=O)N1N=C(c2ccccc2)C1c1ccccc1` (stereo not drawn), the GI50 in test [1] was 78.9 µM (inactive); in test [2], 17.7 µM (inactive); in test [3], 54.2 µM (inactive); in test [4], 51.8 µM (inactive); in [5], 45.3 µM; in test [6], > 100 µM (inactive). Besides, the GI50 in test [7] was 62.4 µM (inactive); in test [8], 78.7 µM (inactive); in test [9], 75.5 µM (inactive); in test [10] it was 39.6 µM (inactive); in [11], 61.7 µM (inactive); in test [12], 46.1 µM (inactive). Moreover, the GI50 is > 100 µM (inactive) in [13]; 87.3 µM (inactive) in [14]; 54.3 µM (inactive) in test [15]; > 100 µM (inactive) in test [16]; 50.4 µM (inactive) in test [17].

For `COC(=O)c1ccccc1C1=C([N+](=O)[O-])C(c2cccc(Br)c2)C(C#N)=C(N)O1` (stereo not drawn), the GI50 in test [1] is > 100 µM (inactive); in test [2] it was 20.8 µM (inactive); in test [3], 33 µM (inactive); in test [4] it was 31.5 µM (inactive); in test [5] it was 19.4 µM; in test [6] it was 33 µM (inactive). Besides, the GI50 in test [7] was 21.5 µM (inactive); in test [8], 27.8 µM (inactive); in test [9], 19.4 µM (inactive); in test [18] it was 41.3 µM (inactive); in test [11], 20.7 µM (inactive); in [13] it was 52.6 µM (inactive). Further, the GI50 in test [14] is 86.5 µM (inactive); in test [15] it was 25.4 µM (inactive); in test [16] it was 46.5 µM (inactive).

Regarding `CC(C)[C@@H]1CC[C@@H](C)C[C@H]1OC(=O)c1c2n(c3ccccc13)C[C@H]1OC(C)(C)O[C@@H]21`, the GI50 was 18.9 µM (inactive) in test [1]; 61.8 µM (inactive) in test [19]; 4.22 µM (inactive) in [2]; 72.4 µM (inactive) in test [3]; 4.36 µM (inactive) in test [4]; 24.7 µM in test [5]. Also, the GI50 in [6] is 27.5 µM (inactive); in [8] it was 13 µM (inactive); in test [9], 6.18 µM (inactive); in [10] it was 7.64 µM (inactive); in [11], 18.2 µM (inactive); in test [12] it was 20.9 µM (inactive). The GI50 in test [13] is 46.7 µM (inactive); in test [14], 5.5 µM (inactive); in test [16], 18.5 µM (inactive); in [17], 96.2 µM (inactive).

In the case of `CCOC(=O)c1sc2c(c1OC(=O)c1ccccc1)c(=O)n(-c1ccccc1)c(=S)n2-c1ccccc1`, the GI50 in test [1] was 26.1 µM (inactive); in test [2] it was 41.8 µM (inactive); in test [3], > 100 µM (inactive); in test [4], 16.2 µM (inactive); in test [5], 45.5 µM; in [6], 22.9 µM (inactive). Further, the GI50 in [7] was 25.7 µM (inactive); in test [8], 19.8 µM (inactive); in test [9] it was 40.3 µM (inactive); in [10] it was 21.7 µM (inactive); in test [18] it was 19.3 µM (inactive); in [11], 24.5 µM (inactive). The GI50 in test [12] was 12.4 µM (inactive); in test [13] it was 32.2 µM (inactive); in [14] it was 20.7 µM (inactive); in test [16] it was 70.1 µM (inactive).

Turning to `CCOC(=O)C(NC(=O)Nc1ccc(Cl)c(Cl)c1)C(F)(F)F` (stereo not drawn), the GI50 in [1] was > 100 µM (inactive); in test [19] it was 45.2 µM (inactive); in [2] it was > 100 µM (inactive); in test [3] it was > 100 µM (inactive); in test [4], > 100 µM (inactive); in test [5] it was 40.9 µM. In addition, the GI50 in test [8], in test [9], in test [13], in [14], in test [15] and in test [16] was > 100 µM (inactive) in each case. Also, the GI50 in [17] was 49.8 µM (inactive).

Regarding `OCCC/N=C1N=C(Cl)/C(=C\c2ccccc2)N\1`, the GI50 in test [1] is > 100 µM (inactive); in test [2], > 100 µM (inactive); in test [3], > 100 µM (inactive); in test [4], > 100 µM (inactive); in [5], > 100 µM; in test [7], > 100 µM (inactive). In addition, the GI50 in test [8], in test [9], in test [10], in test [12], in test [13] and in test [14] was > 100 µM (inactive) throughout. Also, the GI50 in [15], in test [16] and in test [17] was > 100 µM (inactive) each time.

In the case of `Cc1cccc(NS(=O)(=O)c2ccc3c(c2)OCCOCCOCCOCCO3)c1`, the GI50 is > 100 µM (inactive) in test [1]; > 100 µM (inactive) in test [19]; > 100 µM (inactive) in test [2]; > 100 µM (inactive) in test [3]; > 100 µM (inactive) in test [4]; > 100 µM in [5]. Further, the GI50 in test [6], in test [8], in test [10], in test [18], in [13] and in test [14] was > 100 µM (inactive) each time. Moreover, the GI50 in test [15] was 51.5 µM (inactive); in test [16], > 100 µM (inactive); in test [17] it was > 100 µM (inactive).

`C=CCC(O)c1cc(OC)ccc1OC` (stereo not drawn): the GI50 was > 100 µM (inactive) in [1]; > 100 µM (inactive) in [2]; > 100 µM (inactive) in [3]; > 100 µM in test [5]; > 100 µM (inactive) in test [6]; > 100 µM (inactive) in [7]. Also, the GI50 in [8], in test [9], in [10], in test [18], in test [11] and in test [12] was > 100 µM (inactive) throughout. Also, the GI50 in test [13], in test [14], in [15], in test [16] and in test [17] was > 100 µM (inactive) in each case.

`CNC(=O)Oc1ccc(C(=S)Nc2ccc(Br)cc2)cc1`: the GI50 in test [1] is 21.9 µM (inactive); in [19] it was 17.1 µM (inactive); in test [2], 1.81 µM (inactive); in test [3], 18.2 µM (inactive); in test [4], 19.8 µM (inactive); in test [5], 16.1 µM. Also, the GI50 was 20.6 µM (inactive) in test [6]; 0.783 µM (active) in test [8]; 13.4 µM (inactive) in test [9]; 31.3 µM (inactive) in test [10]; 19.7 µM (inactive) in [11]; 18.5 µM (inactive) in test [12]. In addition, the GI50 in test [13] is 22 µM (inactive); in [14], 17.8 µM (inactive); in test [17] it was 17 µM (inactive).

Regarding `O=C(CC(NC(=O)OCc1ccccc1)C(=O)NC1Cc2ccccc2C1=O)OCc1ccccc1` (stereo not drawn), the GI50 in test [1] was > 100 µM (inactive); in test [19], > 100 µM (inactive); in [5], > 100 µM; in [6], > 100 µM (inactive); in test [8] it was > 100 µM (inactive); in test [10] it was > 100 µM (inactive). In addition, the GI50 was > 100 µM (inactive) in test [18]; > 100 µM (inactive) in test [11]; > 100 µM (inactive) in test [13]; > 100 µM (inactive) in [14]; 59.3 µM (inactive) in [15]; > 100 µM (inactive) in [16]. For the same compound, in test [17], the GI50 was > 100 µM (inactive).

As to `Nc1cnc(Nc2cccc3ccccc23)o1`, the GI50 in [1] is > 10 µM (inactive); in test [2] it was > 10 µM (inactive); in test [3], > 10 µM (inactive); in test [4], > 10 µM (inactive); in [5], > 10 µM; in test [6], > 10 µM (inactive). Further, the GI50 in test [8], in test [9], in [10], in test [18], in [11] and in [12] was > 10 µM (inactive) throughout. Also, the GI50 in test [13], in [14], in test [15], in test [16] and in test [17] was > 10 µM (inactive) in each case.

For the compound `CN1CCN(Cn2nc(-c3ccccc3)n(/N=C/c3ccc(-c4ccc(Cl)cc4Cl)o3)c2=S)CC1`, the GI50 in test [2] is 4.17 µM (inactive); in test [4], 3.66 µM (inactive); in test [5], 4.18 µM; in test [6], 11.4 µM (inactive); in [7], 8.95 µM (inactive); in test [8], 8.97 µM (inactive). Also, the GI50 was 13 µM (inactive) in test [9]; 5.61 µM (inactive) in test [18]; 11.7 µM (inactive) in test [11]; 16.3 µM (inactive) in test [12]; 12.1 µM (inactive) in test [13]; 7.71 µM (inactive) in test [14]. Also, the GI50 in test [16] is 15.1 µM (inactive); in test [17], 14.8 µM (inactive).

Consider `C/C(=C\c1ccc(Cl)c(Cl)c1)[N+](=O)[O-]`, for which the GI50 is 1.89 µM (inactive) in test [1]; 2.77 µM (inactive) in test [4]; 1.35 µM in [5]; 2.5 µM (inactive) in test [6]; 2.16 µM (inactive) in [8]; 0.314 µM (active) in test [9]. The GI50 is 2.08 µM (inactive) in [10]; 20.7 µM (inactive) in [18]; 1.65 µM (inactive) in test [11]; 2.51 µM (inactive) in test [12]; 2.31 µM (inactive) in test [13]; 2.04 µM (inactive) in test [14]. Moreover, the GI50 in test [15] is 4.2 µM (inactive); in [16], 1.86 µM (inactive); in test [17], 1.32 µM (inactive).
